Assay [1] relates to ovalbumin-induced systemic edema. Put plainly: Ovalbumin-induced systemic edema method. The format is in vivo. The following applies: Rattus norvegicus, rats, oral 100 mg/kg one hour prior to and simultaneously with ovalbumin. How it is done: (b) Ovalbumin-induced systemic edema method Rats are administered a simultaneous intraperitoneal injection of 1 ml ovalbumin and 0.5 ml of a 1% aqueous Evans Blue solution. The animals of the treated group are additionally administered orally 100 mg/kg of the test derivative, one hour prior to and simultaneously with said ovalbumin administration. The intensity of the phenomenon thus induced is scored according to a scale from 1 to 5, according to the progress of the inflammatory syndrome. Thus are determined with respect to the control group the mean intensity and the percent decrease of the edema reaction, as a function of time. The percent anti-inflammatory activity obtained 2 hours and 3 hours, respectively, after ovalbumin injection, is tabulated in following Table III: […]

Assay [2] in a line: Potentiation of hypnotics (infrahypnotic sodium pentobarbital). Format: in vivo. Particulars: mice, oral 50 mg/kg, thirty minutes prior to i.p. infrahypnotic sodium pentobarbital. How it is done:
In addition, the compounds of the formula (I) potentiate very markedly the effect of hypnotics. Indeed, on oral administration to different groups of mice, at a dosage of 50 mg/kg, thirty minutes prior to intraperitoneal injection of an infrahypnotic dosage of sodium pentobarbital, they produce, with respect to the untreated reference animals, a marked potentiation of the barbiturate.

For assay [3], the system named is carrageenin-induced edema. As to the kind of experiment: Localised carrageenin-induced edema method. Particulars: Rattus norvegicus, rats, oral 100 mg/kg at -1, 0, 1 and 2.5 hours. The format is in vivo. How it is done: (a) Localised carrageenin-induced edema method: A 1% carrageenin solution (0.1 ml) is injected in the metatarsal flexor muscles of the right hind limb of rats at time 0. The animals of the treated group are additionally administered orally 100 mg/kg of the test derivative, respectively one hour prior to and then simultaneously with the phlogogenic agent, and then one hour and 2.5 hours thereafter. The percent antiinflammatory activity, as a function of time, is determined with respect to the control group by measurements effected with a ROCH micrometer at times 0, one hour, two hours, three hours and five hours after carrageenin administration.
Background: In the carrageenan paw model, swelling and tenderness develop within hours.

Assay [4] deals with A.D.P.-induced blood-platelet aggregation. Put plainly: A.D.P.-induced blood-platelet aggregation (plasma of orally treated rats). Particulars: Rattus norvegicus, oral 100 mg/kg, 3 hours after treatment, 10 μM A.D.P., read-out: Percent inhibition of blood-platelet aggregation, A.D.P. Format: in vivo, rats of Wistar strain. As for the experimental part:
(§1) A blood sample is taken from the jugular vein of rats of Wistar strain. From this citrated blood, and after centrifugation, is reconstituted a plasma containing 600,000 ± 20,000 platelets per mm^3 which will be used in all aggregation determinations. (a) Determination of A.D.P.-induced blood-platelet aggregation 0.4 ml plasma is placed in a siliconized tube provided with a magnetic bar, which is also siliconized. The tube is introduced into an aggregometer connected with an optical density variation recorder. When light transmission has reached a stable value, 0.5 ml of a solution containing 10 μM A.D.P. (adenosine-diphosphate) are introduced in the tube. Blood-platelet aggregation then induces an increase of light transmission followed by a decrease subsequent to the deaggregation phase. The thus determined maximum variation of optical density characterizes the intensity of the aggregation. Different groups of 20 rats are used, each group being administered orally a test derivative, at a dosage of 100 mg/kg. The results obtained in the course of tests a) and b) are tabulated in following Table I which indicates the percent inhibition of blood-plateletaggregation obtained, with respect to the control, 3 hours after treatment.

Assay [5] concerns collagen-induced blood-platelet aggregation. As to the kind of experiment: Collagen-induced blood-platelet aggregation (plasma of orally treated rats). The format is in vivo, rats of Wistar strain. Particulars: Rattus norvegicus, oral 100 mg/kg, 3 hours after treatment, collagen (bovine tendon extract), read-out: Percent inhibition of blood-platelet aggregation, Collagen. As for the experimental part:
as §1, with “determinations.” for “determinations. (a) Determination of A.D.P.-induced blood-platelet aggregation”, “aggregation. (b) Determination of collagen-induced blood-platelet aggregation The A.D.P. solution is substituted with a collagen solution (bovine tendon extract).” for “aggregation.”

Where [6] appears, read: 2 hours after ovalbumin injection, read-out: Percent anti-inflammatory activity after 2 hours.
[7] abbreviates: 3 hours after ovalbumin injection, read-out: Percent anti-inflammatory activity after 3 hours.
Where [8] appears, read: 1 hour after carrageenin, read-out: Percent anti-inflammatory activity after 1 hour.
The mark [9] stands for this setting: 2 hours after carrageenin, read-out: Percent anti-inflammatory activity after 2 hours.
Where [10] appears, read: 3 hours after carrageenin, read-out: Percent anti-inflammatory activity after 3 hours.
Setting [11] is: 5 hours after carrageenin, read-out: Percent anti-inflammatory activity after 5 hours.

Like-named read-outs stand apart in the source and are kept apart here.

`CCOC(=O)c1sc2c(c1O)CN(C)CC2` [Derivative n°6, 2-Ethoxycarbonyl-3-hydroxy-5-methyl-4,5,6,7-tetrahydro-thieno[3,2-c]pyridine]: the inhibition in vivo at 100 mg/kg in assay [1] (setting [6]) was determined as 52%; in assay [1] (setting [7]) it was 59%; in assay [3] (setting [8]) it was 34%; in assay [3] (setting [9]), 40%; in assay [3] (setting [10]) it was 43%; in assay [3] (setting [11]) it was 48%. For the same molecule, the inhibition in vivo at 100 mg/kg was found to be 63.8% in assay [4] and 93.2% in assay [5]. Moreover, the “percent animals put to sleep” value in assay [2] turned out to be 90%.

With `COC(=O)c1sc2c(c1O)CN(Cc1ccccc1Cl)CC2` [Derivative n°5, 5-o-Chlorobenzyl-3-hydroxy-2-methoxycarbonyl-4,5,6,7-tetrahydro-thieno[3,2-c]pyridine], the inhibition in vivo at 100 mg/kg in assay [1] (setting [6]) stood at 47%; in assay [1] (setting [7]) it was 55%; in assay [3] (setting [8]), 41%; in assay [3] (setting [9]), 47%; in assay [3] (setting [10]) it was 51%; in assay [3] (setting [11]), 55%. Besides, the figures for the inhibition in vivo at 100 mg/kg in assay [4] and in assay [5] were 64.4% and 96.7%, respectively. Besides, in assay [2], the “percent animals put to sleep” value is 70%.

In the case of `CCOC(=O)c1sc2c(c1O)CN(CCc1ccccc1)CC2` [Derivative n°9, 2-Ethoxycarbonyl-3-hydroxy-5-phenethyl-4,5,6,7-tetrahydro-thieno[3,2-c]pyridine], the inhibition in vivo at 100 mg/kg in assay [1] (setting [6]) was determined as 53%; in assay [1] (setting [7]), 62%; in assay [3] (setting [8]) it was 42%; in assay [3] (setting [9]), 46%; in assay [3] (setting [10]), 50%; in assay [3] (setting [11]) it was 54%. Besides, the inhibition in vivo at 100 mg/kg amounted to 64.5% in assay [4] and 93.8% in assay [5]. In addition, the “percent animals put to sleep” value in assay [2] was 100%.

Turning to `CCOC(=O)c1sc2c(c1O)CN(Cc1ccccc1Cl)CC2` [Derivative n°1, 5-o-Chlorobenzyl-2-ethoxycarbonyl-3-hydroxy-4,5,6,7-tetrahydro-thieno[3,2-c]pyridine], the inhibition in vivo at 100 mg/kg in assay [1] (setting [6]) turned out to be 54%; in assay [1] (setting [7]) it was 63%; in assay [3] (setting [8]), 46%; in assay [3] (setting [9]), 53%; in assay [3] (setting [10]), 56%; in assay [3] (setting [11]) it was 60%. For the same molecule, the inhibition in vivo at 100 mg/kg turned out to be 61.2% in assay [4] and 90.2% in assay [5]. Besides, in assay [2], the “percent animals put to sleep” value was found to be 60%.

With `COC(=O)c1sc2c(c1O)CNCC2` [Derivative n°8, 3-Hydroxy-2-methoxycarbonyl-4,5,6,7-tetrahydro-thieno[3,2-c]pyridine], the inhibition in vivo at 100 mg/kg in assay [1] (setting [6]) was 48%; in assay [1] (setting [7]), 57%; in assay [3] (setting [8]), 43%; in assay [3] (setting [9]), 49%; in assay [3] (setting [10]), 53%; in assay [3] (setting [11]), 55%. The inhibition in vivo at 100 mg/kg in assay [4] worked out at 62.1%; in assay [5], 94.3%. Besides, the “percent animals put to sleep” value in assay [2] was 80%.

Take `CCOC(=O)c1sc2c(c1O)CN(C(=O)c1ccccc1)CC2` [Derivative n°2, 5-benzoyl-2-ethoxycarbonyl-3-hydroxy-4,5,6,7-tetrahydro-thieno[3,2-c]pyridine]: the inhibition in vivo at 100 mg/kg came to 49% in assay [1] (setting [6]); 58% in assay [1] (setting [7]); 42% in assay [3] (setting [8]); 48% in assay [3] (setting [9]); 50% in assay [3] (setting [10]); 53% in assay [3] (setting [11]). The inhibition in vivo at 100 mg/kg in assay [4] was determined as 62.8%; in assay [5], 94.6%. The “percent animals put to sleep” value in assay [2] worked out at 60%.

`CCOC(=O)c1sc2c(c1O)CN(Cc1ccccc1)CC2.Cl` [Derivative n°4, 5-Benzyl-2-ethoxycarbonyl-3-hydroxy-4,5,6,7-tetrahydro-thieno[3,2-c]pyridine hydrochloride]: the inhibition in vivo at 100 mg/kg in assay [1] (setting [6]) came to 48%; in assay [1] (setting [7]) it was 56%; in assay [3] (setting [8]), 39%; in assay [3] (setting [9]) it was 45%; in assay [3] (setting [10]) it was 50%; in assay [3] (setting [11]), 53%. Also, the inhibition in vivo at 100 mg/kg in assay [4] turned out to be 64.8%; in assay [5] it was 95.2%. For the same molecule, the “percent animals put to sleep” value in assay [2] was found to be 70%.

`CCOC(=O)c1sc2c(c1O)CNCC2` [Derivative n°7, 2-Ethoxycarbonyl-3-hydroxy-4,5,6,7-tetrahydro-thieno[3,2-c]pyridine]: the inhibition in vivo at 100 mg/kg in assay [1] (setting [6]) stood at 50%; in assay [1] (setting [7]), 60%; in assay [3] (setting [8]), 36%; in assay [3] (setting [9]), 41%; in assay [3] (setting [10]), 45%; in assay [3] (setting [11]), 52%. Moreover, the inhibition in vivo at 100 mg/kg in assay [4] was 62.5%; in assay [5], 95.6%. In assay [2], the “percent animals put to sleep” value is 90%.

As for `CCOC(=O)c1sc2c(c1OC(C)=O)CN(Cc1ccccc1Cl)CC2` [Derivative n°3, 3-acetoxy-5-o-chlorobenzyl-2-ethoxycarbonyl-4,5,6,7-tetrahydro-thieno[3,2-c]pyridine], the inhibition in vivo at 100 mg/kg in assay [1] (setting [6]) came out at 51%; in assay [1] (setting [7]) it was 59%; in assay [3] (setting [8]) it was 38%; in assay [3] (setting [9]) it was 45%; in assay [3] (setting [10]) it was 49%; in assay [3] (setting [11]) it was 51%. Also, the inhibition in vivo at 100 mg/kg in assay [4] came out at 62.4%; in assay [5] it was 92.9%. For the same molecule, the “percent animals put to sleep” value in assay [2] is on record as 80%.

For the molecule `CCOC(=O)c1sc2c(c1O)CN(C(=O)OCC)CC2` [Derivative n°11, 2,5-Diethoxycarbonyl-3-hydroxy-4,5,6,7-tetrahydro-thieno[3,2-c]pyridine], the inhibition in vivo at 100 mg/kg stood at 51% in assay [1] (setting [6]); 61% in assay [1] (setting [7]); 40% in assay [3] (setting [8]); 46% in assay [3] (setting [9]); 49% in assay [3] (setting [10]); 53% in assay [3] (setting [11]). Besides, the inhibition in vivo at 100 mg/kg in assay [4] was 62.1%; in assay [5], 91%. For the same molecule, in assay [2], the “percent animals put to sleep” value is on record as 60%.

Source of the values: patent US4136186A, “Thieno[3,2-c]pyridine derivatives” (Parcor, priority 1976, dated 1979).
